Source: patent publication US20240252456A1, “ORAL COMPOSITION, SKIN COSMETIC AND HAIR COSMETIC” (MARUZEN PHARMACEUTICALS CO., LTD., priority 2021, published 2024)

What was measured:
CLDN1 mRNA = assay: Claudin-1 (CLDN1) mRNA expression promotive action test; format: cell-based, human; details: NHEK, 24 hours, corrected with GAPDH
Description: Normal human neonatal epidermal keratinocytes (NHEK) were precultured using normal human epidermal keratinocyte growth medium (KGM), and the cells were collected by a trypsin treatment. The collected cells were diluted with KGM to a cell density of 15×10^4 cells/mL, then seeded with 2 mL portions in a 6-well plate (30×10^4 cells/well), and cultured overnight under conditions of 37° C. and 5% CO2. After culturing, the medium was replaced with normal human epidermal keratinocyte basal medium (KBM, the above KGM without addition of growth additives (hEGF, BPE, insulin, antibacterial agents, hydrocortisone)), and culturing was further performed for 24 hours.
After culturing for 24 hours, the medium was removed, and 2 mL of each of test samples (Samples 1 and 3, see Table 19 below for final concentrations) dissolved in KBM was added to each well, and culturing was performed under conditions of 37° C. and 5% CO2 for 24 hours. As a control, culturing was performed in the same manner using KBM to which no sample was added. After culturing, the medium was removed, total RNA was extracted using ISOGEN II (available from NIPPON GENE CO., LTD.), each RNA amount was measured using a spectrophotometer, and the total RNA was prepared so as to be 150 ng/μL.
For CLDN1 and GAPDH as an internal standard, the expression levels of mRNA were measured using the above total RNA as a template. Detection was performed through a two-step real-time RT-PCR reaction using a real-time PCR device, Thermal Cycler Dice Real Time System III (available from Takara Bio Inc.), with PrimeScript™ RT Master Mix (Perfect Real Time) (available from Takara Bio Inc.) and TB Green® Fast qPCR Mix (available from Takara Bio Inc.). Primers available from Takara Bio Inc. were used. The expression level of CLDN1 mRNA was obtained as a value corrected with a value of GAPDH based on total RNA preparations prepared from cells cultured “with test sample addition” and “without sample addition.” From the obtained values, the CLDN1 mRNA expression promotion rate (%) was calculated using the following equation. […]

[1] = system: Normal human neonatal epidermal keratinocytes (NHEK); assay: Laminin-332 production promotive action test; format: cell-based; details: 25 μmol/L, 48 hours, A/B×100 vs no sample
Description: Normal human neonatal epidermal keratinocytes (NHEK) were precultured in a 75 cm^2 flask using normal human epidermal keratinocyte growth medium (KGM), and the cells were collected by a trypsin treatment. The collected cells were diluted with a medium obtained by removing BPE from KGM (KGM-BPE) to a cell density of 1.0×10^5 cells/mL, then seeded with 500 μL per well in a 24-well plate, and cultured for 1 day.
After the culturing was completed, the medium was removed, and 500 μL of the test sample (Sample 1, see Table 11 below for final concentration) dissolved in KGM-BPE was added to each well, and culturing was performed for 48 hours. As a control, culturing was performed in the same manner using KGM-BPE to which no sample was added. After the culturing was completed, 100 μL of the medium supernatant was transferred to an ELISA plate and adsorbed to the plate at 37° C. for 2 hours, and then the amount of adsorbed laminin-332 was measured by ELISA method. From the obtained measurement results, the laminin-332 production promotion rate (%) was calculated using the following equation.
Laminin-332 production promotion rate (%)=A/B×100
Terms in the equation represent the following respective ones. • A: Laminin-332 amount with test sample addition • B: Laminin-332 without sample addition

[2] = system: Normal human neonatal epidermal keratinocytes (NHEK); assay: ATP production promotive action test (epidermal keratinocytes); format: cell-based; details: 2 hours
Description: Normal human neonatal epidermal keratinocytes (NHEK) were cultured using normal human epidermal keratinocyte growth medium (KGM), and then the cells were collected by a trypsin treatment. The collected cells were diluted with KGM to a cell density of 2.0×10^5 cells/mL, then seeded with 100 μL per well on a collagen-coated 96-well plate, and cultured overnight. After the culturing was completed, the medium was removed, and 100 μL of KGM to which each of test samples (Samples 1 and 2, see Table 13 below for final concentrations) was added was added to each well, and culturing was performed for 2 hours. As a control, culturing was performed in the same manner using KGM to which no sample was added.
The ATP production promotive action was determined by measuring the amount of ATP in cells using the firefly luciferase luminescence method. […] After the reaction, the amount of chemiluminescence proportional to the amount of intracellular ATP was measured using a chemiluminescence measurement device (available from Thermo Fisher Scientific, product name: Varioskan LUX multimode microplate reader). From the obtained results, the ATP production promotion rate (%) was calculated using the following equation. […]

[3] = system: Mouse macrophage cells (RAW264.7); assay: Prostaglandin E2 (PGE2) production suppressive action test in mouse macrophages; format: cell-based; details: RAW264.7, LPS 1 μg/mL, 16 hours
Description: Mouse macrophage cells (RAW264.7) were cultured using Dulbecco's modified Eagle's medium (DMEM) containing 10% FBS, and then the cells were collected using a cell scraper. The collected cells were diluted with DMEM containing 10% FBS to a concentration of 2.0×10^5 cells/mL, then seeded with 100 μL per well in a 96-well plate, and cultured for 18 hours.
After the culturing was completed, the medium was replaced with a medium containing 500 μmol/L aspirin and cultured for 4 hours in order to acetylate and inactivate the already existing COX-1 and the small amount of COX-2 expressed. After that, the cells were washed three times with PBS(−) buffer solution, 100 μL of the test sample (Sample 1, see Table 29 below for final concentration) dissolved in DMEM containing DMSO at a final concentration of 0.5% and 10% FBS was added to each well, then 100 μL of lipopolysaccharide (LPS) (available from DIFCO, E. coli 0111; B4) dissolved at a final concentration of 1 μg/mL in DMEM containing 10% FBS, and the cells were cultured for 16 hours. As a control, culturing was performed in the same manner using DMEM containing DMSO at a final concentration of 0.5% and 10% FBS to which no sample was added. After the culturing was completed, the amount of prostaglandin E2 in the culture supernatant of each well was determined using PGE2 EIA Kit (available from Cayman Chemical). From the obtained results, the PGE2 production suppression rate (%) was calculated using the following equation.
Terms in the equation represent the following respective ones. • A: PGE2 amount with test sample addition and with LPS stimulation • B: PGE2 amount without sample addition and with LPS stimulation • C: PGE2 amount without sample addition and without LPS stimulation

Compound | CLDN1 mRNA expression promotion rate (CLDN1 mRNA; 25 μmol/L) | Laminin-332 production promotion rate [1] | ATP production promotion rate ([2]; 6.25 μmol/L) | CLDN1 mRNA expression promotion rate (CLDN1 mRNA; 100 μmol/L) | PGE2 production suppression rate ([3]; 31.25 μmol/L) | PGE2 production suppression rate ([3]; 125 μmol/L) | PGE2 production suppression rate ([3]; 500 μmol/L) | ATP production promotion rate ([2]; 25 μmol/L)
O=C(O)CCc1ccccc1 [Sample 3, 3-phenylpropionic acid] | 125.5% |  |  |  |  |  |  | 
O=C(O)CCc1ccc(O)c(O)c1 [Sample 1, 3,4-Dihydroxyhydrocinnamic acid] | 256.6% | 142. 0% | 106.7% | 568.6% | 17.9% | 17.7% | 41.3% | 
O=C(O)CCc1ccc(O)cc1 [Sample 2, 3-(4-Hydroxyphenyl)propionic acid] |  |  |  |  |  |  |  | 112.4%
